This is an account of results in patent publication US7122328B2, “Gene involved in mineral deposition and uses thereof” (The Board of Trustees of the Leland Stanford Junior …, priority 2000, dated 2006).

The assay concerns COS cells. The assay can be described thus: Intracellular/extracellular pyrophosphate levels in transfected COS cells. The conditions noted are these: overexpression in tissue culture cells. The format is cell-based. The text has this:
Several protocols have previously been developed for measuring inorganic pyrophosphate in biological samples and any number of these are used in the in vitro assay. Some measure pyrophosphate hydrolysis to orthophosphate by calorimetry (McCarty et al., J. Lab. Clin. Med., 78:216–29 (1971)), while others use labeled substrates that couple with pyrophosphate in enzymatic reactions to determine pyrophosphate levels radiometrically (Cheung and Suhadolnik, Anal. Biochem., 83:61–3 (1977); Caswell and Russell, Biochim. Biophys. Acta, 847:40–7 (1985)). In another type of protocols, inorganic pyrophosphate is subjected to a series of coupled enzymatic phosphorylation and reduction to yield NADPH which can be quantified flourimetrically (Lust and Seegmiller, Clin. Chim. Acta, 66:241–9 (1976)). Although each of these can be used in the assay, the latter protocol is used with described modifications as follows.
COS cells grown in DMEM supplemented with 10% fetal bovine serum, 2 mM GlutaMax (Gibco), 0.1 mM non-essential amino acids, 100 units/ml Penicillin G, and 100 μg/ml Streptomycin are harvested and ˜1–2×10^6 cells are plated on a 100 mm tissue culture dish and incubated overnight at 37° C., 5% CO2. […]

Consider “wild type ANK gene product: wild type ANK protein overexpressed in tissue culture cells; multiple-pass integral membrane protein of 492 amino acids”, for which the extracellular pyrophosphate levels entry is given as “increase” and the intracellular pyrophosphate levels entry was “dramatic reduction”.
